Laboratory results: US20130331347A1, “Treatment of Clostridium Difficile Infection in Patients Undergoing Antibiotic Therapy” (Optimer Pharmaceuticals, Inc., priority 2010, published 2013)

System: Clostridium difficile infection (CDI)
Assay: Concomitant antibiotics (CAs) during CDI treatment: PO fidaxomicin vs PO vancomycin, clinical outcome review
Assay type: in vivo, human
Conditions: for Global Cure (clinical cure with no recurrence) / Clinical Cure / Recurrence: per protocol (PP); for Clinical Cure: 10 days of study drug; for Recurrence: CDI recurrence during 4-wk follow-up
Method: Administration of concomitant antibiotics (CAs) to subjects during the 10 days of study drug administration (PO Fidaxomicin (FDX 200 mg BID)) vs. (PO Vancomycin (Vanc 125 mg QID)) through 4-wk follow-up period was reviewed. End points were the effect of CAs on clinical cure, CDI recurrence during 4-wk follow-up, and global cure (clinical cure with no recurrence).

[1] = in those who received CAs, in words

| SMILES | Global Cure (clinical cure with no recurrence) (CA (concomitant antibiotics)) [%] | Clinical Cure (CA (concomitant antibiotics)) [%] | Recurrence (CA (concomitant antibiotics)) [%] | Global Cure (clinical cure with no recurrence) (No CA) [%] | Clinical Cure (No CA) [%] | Recurrence (No CA) [%] | CDI recurrences compared to Vanc [1] | global cures compared to Vanc [1] |
| --- | --- | --- | --- | --- | --- | --- | --- | --- |
| CN[C@H](CC(C)C)C(=O)N[C@H]1C(=O)N[C@@H](CC(N)=O)C(=O)N[C@H]2C(=O)N[C@H]3C(=O)N[C@H](C(=O)N[C@H](C(=O)O)c4cc(O)cc(O)c4-c4cc3ccc4O)[C@H](O)c3ccc(c(Cl)c3)Oc3cc2cc(c3O[C@@H]2O[C@H](CO)[C@@H](O)[C@H](O)[C@H]2O[C@H]2C[C@](C)(N)[C@H](O)[C@H](C)O2)Oc2ccc(cc2Cl)[C@H]1O [Vanc, Vancomycin, reference compound] | 50 | 77 | 40 | 72 | 94 | 18 | – | – |
| CCc1c(Cl)c(O)c(Cl)c(O)c1C(=O)O[C@H]1[C@H](O)[C@H](OC)[C@H](OC/C2=C\C=C\C[C@H](O)/C(C)=C/[C@H](CC)[C@@H](O[C@@H]3OC(C)(C)[C@@H](OC(=O)C(C)C)[C@H](O)[C@@H]3O)/C(C)=C/C(C)=C/C[C@@H]([C@@H](C)O)OC2=O)O[C@@H]1C [FDX, fidaxomicin] | 72 | 87 | 23 | 79 | 93 | 11 | lower | significantly improved |
